# Legend:
# [1] = tested on: RKOp21 (human colon adenocarcinoma) cells; assay: XTT cytotoxicity assay, RKOp21 cells; type: cell-based; conditions: for inhibition at 31.6 µM: read-out: RKOp21 % INH [31.6 μM]
# Protocol: (§1) Cytotoxicity of selected compounds of the invention against different mammalian cell lines was assessed as follows.
# (§2) Human tumor cell lines KB/HeLa (ATCC CCL17, human cervix carcinoma), PC3 (ATCC CRL1435, human prostate carcinoma) and RKOp21 (human colon adenocarcinoma; Schmidt et al., Oncogene 2000, 19: 2423-2429) cells were used in an automated XTT screening assay for the assessment of cytotoxicity.
# (§3) The XTT assay quantifies cellular metabolic activity which correlates with cell viability and cell number. Test compounds (selected compounds of the invention and known substances as controls) are dissolved in culture medium at 600 μM and added to the tumor cells in 10 different concentrations in a semi-logarithmic fashion starting from 100 μM as highest concentration.
# (§4) In a second set of experiments employing PC3, RKOp21 and SKOV-3 (ATCC HTB-77, human ovary adenocarcinoma) cells, test and reference compounds were dissolved in 70% Ethanol/30% H2O in a stock concentration of 10 mM and diluted in cell culture medium to yield either 31.6 μM (PC3 and RKOp21) or 100 μM (SKOV-3) final concentration.
# (§5) 48 h later cellular metabolic activity of cells treated with test compounds is quantified by measurement of the absorbance at 490 nm (conversion of XTT dye) in comparison to untreated control cells (100% viability).
# (§6) KB/HeLa and PC3 cells were cultivated in RPMI 1640 medium (Gibco, Cat. No. 42401-018) supplemented with 10% heat inactivated fetal calf serum (FCS, Biochrom AG, Cat. No. S0115), 2 mM L-glutamine (Gibco, Cat. No. 25030-24) and 2% Penicillin-Streptomycin (PenStrep, Gibco, Cat. No. 15140-122). RKOp21 cells were grown in DMEM+GlutaMAXTM-I medium (Gibco, Cat. No. 61965-026) supplemented with 10% heat inactivated fetal calf serum (FCS, Biochrom AG, Cat. No. S0115), 2 mM L-glutamine (Gibco, Cat. No. 25030-24), 2% Penicillin-Streptomycin (PenStrep, Gibco, Cat. No. 15140-122) and 1% 1M HEPES (Gibco, Cat. No. 15630-056). All cells were cultured at 37° C. in 5% CO2 humidified air.
# (§7) On the first day of the experiment cells were harvested from exponential phase cultures by trypsination, counted and plated into 96 well flat-bottom micro titer plates depending on the cell line as listed below:
# (§8) After a 24 h recovery to allow the cells to resume exponential growth, the test compounds were diluted immediately prior to use and transferred in 25 μl volume to the wells.
# (§9) Following 2 days of continuous drug exposure 50 μl of freshly prepared XTT-PMS solution {2% 0.386 mg/ml PMS (N-Methyl Dibenzopyrazine Methylsulphate; Sigma, Cat. No. P9625) in PBS+98% 1 mg/ml XTT (Sodium 2,3-bis(2-methoxy-4-nitro-5-sulfophenyl)-5-[(phenylamino)carbonyl]-2H-Tetrazolium; Serva, Cat. No. 38450) in RPMI 1640 medium without phenol red} was added to the wells. To measure the proportion of living cells, the cells were incubated for 3 h with XTT-PMS reagent at 37° C., 5% CO2, humidified atmosphere allowing to form the formazan salt. The amount of soluble formazan salt produced by cellular reduction of XTT is quantified by measuring the absorbance at 490 nm using the Biomek® 2000 ELISA plate reader. %-inhibition (cytotoxicity) of each test compound was calculated in relation to untreated control cells. Inhibition curves were generated and IC50 values calculated by using GraphPad Prism.
# [2] = tested on: PC3 (human prostate carcinoma) cells; assay: XTT cytotoxicity assay, PC3 cells; type: cell-based; conditions: for inhibition at 31.6 µM: read-out: PC3 % INH [31.6 μM]
# Protocol: as §1, §2, §3, §4, §5, §6, §7, §8, §9
# [3] = tested on: KB/HeLa (human cervix carcinoma) cells; assay: XTT cytotoxicity assay, KB/HeLa cells; type: cell-based; conditions: Homo sapiens, HeLa; XTT, 48 h exposure; read-out: KB/HELA [IC50 (μM)]
# Protocol: as §1, §2, §3, §5, §6, §7, §8, §9
# [4] = tested on: SKOV-3 (human ovary adenocarcinoma) cells; assay: XTT cytotoxicity assay, SKOV-3 cells; type: cell-based; conditions: for inhibition at 100 µM: Homo sapiens, SK-OV-3, second set of experiments, read-out: SKOV-3 % INH [100 μM]
# Protocol: On the first day of the experiment cells were harvested from exponential phase cultures by trypsination, counted and plated into 96 well flat-bottom micro titer plates depending on the cell line as listed below: [table] After a 24 h recovery to allow the cells to resume exponential growth, the test compounds were diluted immediately prior to use and transferred in 25 μl volume to the wells. Following 2 days of continuous drug exposure 50 μl of freshly prepared XTT-PMS solution {2% 0.386 mg/ml PMS (N-Methyl Dibenzopyrazine Methylsulphate; Sigma, Cat. No. […] Serva, Cat. No. 38450) in RPMI 1640 medium without phenol red} was added to the wells. To measure the proportion of living cells, the cells were incubated for 3 h with XTT-PMS reagent at 37° C., 5% CO2, humidified atmosphere allowing to form the formazan salt. […] Inhibition curves were generated and IC50 values calculated by using GraphPad Prism.
# [5] = tested on: PC3, RKOp21 and SKOV-3 cell lines; assay: XTT cytotoxicity assay, mean over all three cell lines; type: cell-based, human; conditions: mean value over all three cell lines
# Protocol: Following 2 days of continuous drug exposure 50 μl of freshly prepared XTT-PMS solution {2% 0.386 mg/ml PMS (N-Methyl Dibenzopyrazine Methylsulphate; Sigma, Cat. No. […] Serva, Cat. No. 38450) in RPMI 1640 medium without phenol red} was added to the wells. To measure the proportion of living cells, the cells were incubated for 3 h with XTT-PMS reagent at 37° C., 5% CO2, humidified atmosphere allowing to form the formazan salt. […] Inhibition curves were generated and IC50 values calculated by using GraphPad Prism. In the following table 7 cytotoxicity results (% inhibition of cell growth) obtained in the second set of experiments for selected compounds of the invention are presented in comparison to examples of the prior art (perifosine, miltefosine). The results presented are individual values for the respective cell line as well as the mean value over all three cell lines tested.
# [6] = tested on: Moraxella catarrhalis DMS 11994 (ATCC 43617); assay: Anti-bacterial bouillon microdilution assay (MIC), bacterium D; type: cell-based; conditions: ATCC43617, 24 h
# Protocol: Selected compounds of the invention were tested in a bouillon microdilution assay method according to the DIN 58940 (www.din.de) guidelines for determination of susceptibility of bacterial strains with regard to cell growth inhibition. The assay method quantifies bacterial cell growth which corresponds to the turbidity of the liquid culture medium by photometric measurement carried out at 595 nm.
# The method of MIC determination was performed according to DIN 58940-5. The volumina were adapted according to the microdilution method as described in DIN 58940-7 guideline.
# Dependent on water solubility, compounds of the invention were dissolved either in water or ethanol in a concentration of 10 mg/ml. Subsequently, the stock was further diluted in water to a concentration of 512 μg/ml. The following serial dilutions (factor 2) were performed in water resulting in the following […] testing concentrations: 256 μg/ml, 128 μg/ml, 64 μg/ml, 32 μg/ml, 16 μg/ml, 8 μg/ml, 4 μg/ml, 2 μg/ml, 1 μg/ml, 0.5 μg/ml, 0.25 μg/ml and 0.125 μg/ml. Diluted compounds of the invention were transferred in 100 μl volume to the microtiter plate wells.
# Pre-cultures of bacteria were grown in appropriate liquid media (refer to ATCC webpage, www.atcc.org) and afterwards were inoculated in corresponding liquid medium. 100 μl of the inoculums [adjusted to an amount of app. 1×10^6 microorganisms per ml (range of 10^5-10^8 microorganisms per ml)] were added to each of the testing compound concentrations and cultivated under the appropriate conditions.
# Before and after incubation, bacterial growth was determined by photometric analysis against a positive control containing growing bacteria without compound and a sterile/negative control containing only the medium.
# [7] = Homo sapiens, 31.6 μM, second set of experiments
# [8] = Homo sapiens, PC-3, 31.6 μM, second set of experiments
# [9] = 31.6 μM, second set of experiments
MIC [6],SMILES,"inhibition at 31.6 µM [1, 7]","IC50 ([1]; Homo sapiens, XTT, 48 h exposure, read-out: RKOp21 [IC50 (μM)])","inhibition at 31.6 µM [2, 8]","IC50 ([2]; Homo sapiens, PC-3, XTT, 48 h exposure, read-out: PC3 [IC50 (μM)])",IC50 [3],inhibition at 100 µM [4],Mean % INH [5],"RKOp21 % INH [31.6 μM] [1, 9]","PC3 % INH [31.6 μM] [2, 9]",SKOV-3 % INH [100 μM] ([4]; second set of experiments)
–,CCCCCCCCC#CCCCCCCCCOP(=O)([O-])OCC[N+](C)(C)C [Compound 144],48%,51.1 µM,14%,> 100 µM,> 100 µM,-3%,19.7%,–,–,–
8 µg/mL,CCCCCCCCCCCCCCCCOP(=O)([O-])OCC[N+]1(C)CCCC(C(=O)OCC)C1 (centres unmarked) [Compound 260],40.5%,–,45.2%,–,–,56.1%,47.3%,–,–,–
–,CCCCCCCCCCCCCCCCOP(=O)([O-])OCCCC[N+](C)(C)C [Compound 314],–,–,–,–,–,–,31.8%,10.6%,51.6%,33.2%
–,"CCCCCCCCCCCCCCCCCCOP(=O)([O-])OC1CC[N+](C)(C)CC1 [perifosine, octadecyl-1,1-dimethyl-piperidino-4-yl-phosphate, reference compound]",63%,–,80.2%,–,–,90.7%,78.0%,–,–,–

# — patent US20070167408A1, “NOVEL ALKYL PHOSPHOLIPID DERIVATIVES WITH REDUCED CYTOTOXICITY AND USES THEREOF” (ZENTARIS GmbH, priority 2005, published 2007)
